Data set [1] can be described thus: Oral bioavailability in human at 1 mg/kg. It is filed as ADME, organism-based. As to conditions: in vivo.
The target in data set [2] is T1, fMet-Leu-Phe receptor (Homo sapiens, UniProt P21462).
T1 sequence (P21462 whole entry): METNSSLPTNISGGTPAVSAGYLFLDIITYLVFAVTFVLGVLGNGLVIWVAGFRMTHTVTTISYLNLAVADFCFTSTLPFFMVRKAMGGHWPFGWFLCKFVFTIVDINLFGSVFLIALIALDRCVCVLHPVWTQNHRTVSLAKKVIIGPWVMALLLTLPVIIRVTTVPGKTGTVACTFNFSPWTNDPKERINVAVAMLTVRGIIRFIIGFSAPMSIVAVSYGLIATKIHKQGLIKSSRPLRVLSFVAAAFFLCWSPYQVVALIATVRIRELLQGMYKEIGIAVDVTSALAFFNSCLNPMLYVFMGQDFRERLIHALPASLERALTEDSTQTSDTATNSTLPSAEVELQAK
The experiment in a line: Agonist activity against human FPR1 expressed in HL-60 cells by Fluo4-AM dye based intracellular calcium flux assay. It is filed as functional, cell-based.

Data set [3] deals with T2, N-formyl peptide receptor 2 (Homo sapiens, UniProt P25090).
T2 sequence (P25090 whole entry): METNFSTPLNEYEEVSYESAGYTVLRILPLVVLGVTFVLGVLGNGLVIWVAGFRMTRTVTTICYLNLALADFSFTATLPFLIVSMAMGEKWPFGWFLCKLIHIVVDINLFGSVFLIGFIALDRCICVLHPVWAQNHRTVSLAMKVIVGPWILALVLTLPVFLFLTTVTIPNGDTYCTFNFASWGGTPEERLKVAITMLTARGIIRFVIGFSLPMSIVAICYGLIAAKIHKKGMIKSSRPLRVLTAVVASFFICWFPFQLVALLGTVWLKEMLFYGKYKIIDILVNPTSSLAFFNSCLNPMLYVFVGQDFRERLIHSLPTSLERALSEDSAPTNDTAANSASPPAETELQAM
Briefly: Agonist activity at human FPR2 expressed in HL-60 cells by Fluo4-AM dye based intracellular calcium flux assay. It counts as functional, cell-based.

The nature of data set [4]: Metabolic stability in rat liver microsomes assessed as compound remaining after 30 mins incubation. It is filed as ADME, Microsome. As to conditions: read-out: Stability.
Data set [5] has as its target T2, N-formyl peptide receptor 2. The experiment in a line: Agonist activity at FPR2 (unknown origin) expressed in CHO cells by cAMP assay. It counts as functional, cell-based.
Data set [6] addresses T1, fMet-Leu-Phe receptor. Briefly: Agonist activity at FPR1 (unknown origin) expressed in CHO cells by cAMP assay. It is filed as functional, cell-based.
For data set [7], the target named is T1, fMet-Leu-Phe receptor. The experiment in a line: Agonist activity at FPR1 (unknown origin) transfected in CHO cells by cAMP assay. It is filed as functional, cell-based.
The target of data set [8] is T2, N-formyl peptide receptor 2. Briefly: Agonist activity at FPR2 (unknown origin) transfected in CHO cells by cAMP assay. It counts as functional, cell-based.
Data set [9] addresses T3, fMet-Leu-Phe receptor (Mus musculus, UniProt P33766).
T3 sequence (P33766 whole entry): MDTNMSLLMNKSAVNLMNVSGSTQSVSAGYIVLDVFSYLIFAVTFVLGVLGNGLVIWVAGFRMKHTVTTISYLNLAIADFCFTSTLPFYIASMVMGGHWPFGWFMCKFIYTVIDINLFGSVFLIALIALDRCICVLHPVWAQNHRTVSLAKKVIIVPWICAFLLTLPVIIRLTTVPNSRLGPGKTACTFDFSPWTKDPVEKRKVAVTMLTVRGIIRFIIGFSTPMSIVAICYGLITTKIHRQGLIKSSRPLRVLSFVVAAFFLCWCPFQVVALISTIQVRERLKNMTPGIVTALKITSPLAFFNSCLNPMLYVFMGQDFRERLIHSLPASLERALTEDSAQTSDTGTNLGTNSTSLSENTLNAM
The experiment in a line: Agonist activity at mouse FPR1. It counts as functional.

For data set [10], the target named is T1, fMet-Leu-Phe receptor. Briefly: Agonist activity at human FPR1. It is filed as functional.
Data set [11] addresses T2, N-formyl peptide receptor 2. The experiment in a line: Agonist activity at human FPR2. It counts as functional.
Data set [12] deals with T4, Formyl peptide receptor 2 (Mus musculus, UniProt O88536).
T4 sequence (O88536 whole entry): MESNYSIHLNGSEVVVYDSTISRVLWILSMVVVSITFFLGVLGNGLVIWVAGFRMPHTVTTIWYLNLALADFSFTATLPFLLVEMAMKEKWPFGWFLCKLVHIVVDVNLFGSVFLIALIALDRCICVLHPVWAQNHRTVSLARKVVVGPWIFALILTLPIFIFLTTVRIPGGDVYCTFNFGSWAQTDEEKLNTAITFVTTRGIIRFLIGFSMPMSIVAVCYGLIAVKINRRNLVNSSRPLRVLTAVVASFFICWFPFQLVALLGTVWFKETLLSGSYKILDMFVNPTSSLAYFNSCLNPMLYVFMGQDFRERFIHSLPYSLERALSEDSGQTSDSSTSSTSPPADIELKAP
Briefly: Agonist activity at mouse FPR2.

Data set [13] is described as follows: Permeability of compound in PBS buffer at pH 5.5 by UPLC-MS spectrometry based PAMPA assay. It is filed as ADME. The settings on record: read-out: permeability.
The nature of data set [14]: Intrinsic clearance in rat liver microsomes. It counts as ADME, Microsome.
Data set [15] in a line: Half life in rat liver microsomes measured upto 60 mins by LC-MS/MS analysis. It counts as ADME, Microsome. As to conditions: 1 h.
Data set [16] addresses T1, fMet-Leu-Phe receptor. Briefly: Agonist activity at FPR1 (unknown origin) transfected in CHO cells assessed as increase in calcium mobilization by Fluo-4AM dye based assay. It counts as functional, cell-based.
Data set [17] addresses T2, N-formyl peptide receptor 2. The experiment in a line: Agonist activity at FPR2 (unknown origin) transfected in CHO cells assessed as increase in calcium mobilization by Fluo-4AM dye based assay. It is filed as functional, cell-based.
For data set [18] the target is unchanged. Briefly: Agonist activity at human FPR2 expressed in HL-60 cells assessed as inhibition of WKYMVM-induced calcium mobilization. It counts as functional, cell-based.
For data set [19] the target is unchanged. Briefly: Agonist activity at FPR2 (unknown origin) in HEK293 cells. It is filed as functional, cell-based.
Data set [20] has as its target T1, fMet-Leu-Phe receptor. The experiment in a line: Agonist activity at FPR1 (unknown origin) transfected in human HL60 cells assessed as calcium mobilization incubated for 30 mins and measured for 15 mins by fluorometry method. It counts as functional, cell-based, HL-60.
For data set [21], the target named is T2, N-formyl peptide receptor 2. Briefly: Agonist activity at FPR2 (unknown origin) expressed in CHO cells assessed as Calcium mobilization incubated for 30 min by fluorometry method. It is filed as functional, cell-based.
For data set [22] the target is unchanged. The experiment in a line: Binding affinity to human FPR2 expressed in CHO cells assessed as dissociation constant. It counts as cell-based.
The target of data set [23] is T3, fMet-Leu-Phe receptor. The experiment in a line: Binding affinity to mouse FPR1 expressed in CHO cells assessed as dissociation constant. It counts as cell-based.
The target in data set [24] is T2, N-formyl peptide receptor 2. The experiment in a line: Agonist activity at human FPR2 expressed in CHO cells assessed as increase in calcium mobilization by Fluo-4 AM dye based fluorescence assay. It counts as functional, cell-based.

Where a SMILES comes first, the peptide text is derived from it. The star is where a group is joined. For = O=C*

In data set [1], `O=C(NCc1ccc(Br)cc1F)[C@@H]1C2CCC([C@H]1C(=O)NC1CCNCC1)C21CC1` (stereo not given in full) registered a bioavailability of 0.3%.

In the case of `COc1cccc(Cc2cc(C)nn(CC(=S)Nc3ccccc3)c2=O)c1`, the EC50 in data set [2] and in data set [3] was over 50 µM in each case.

`N#Cc1ccc(C[C@@H](NC(=O)Nc2ccc(F)cc2)C(=O)NCC2(c3ccc(F)c(Cl)c3)CC2)cc1`: the remaining at 0.5 h in data set [4] worked out at 20%.

Take `COc1cc(F)c([C@H]2CC(=O)NC[C@@H]2NC(=O)Nc2ccc(Cl)cc2)c(F)c1` (racemic): the EC50 was under 1 nM in data set [5] and 1000 nM in data set [6]. In the case of `O=C(Nc1ccc(Br)cc1)[C@@H]1C2CCC([C@@H]1C(=O)O)C21CC1` (stereo not given in full), the EC50 in data set [7] amounted to 2200 nM; in data set [8], 280 nM.

Regarding `CC[C@H](C)[C@H](NC(=O)[C@@H](NC(=O)[C@H](Cc1ccccc1)NC(=O)[C@H](CC(C)C)NC(=O)[C@H](CCSC)NC=O)[C@@H](C)CC)C(=O)O` (For-MLFII-OH), the EC50 in data set [9] came out at 0.03 nM; in data set [10], 1400 nM; in data set [11], 3.8 nM; in data set [12], 910 nM.

Take `COc1cc(F)c([C@@H]2CNC(=O)[C@H]2Nc2cc(-c3ccc(Cl)cc3)no2)c(F)c1`: the values for the EC50 in data set [7] and in data set [8] were 470 nM and 10 nM, respectively. Moreover, the Papp in data set [13] amounted to 110 ×10⁻⁶ cm/s. Regarding `N#Cc1ccc(C[C@H](NC(=O)Nc2ccc(F)cc2)C(=O)NCC2(c3ccc(F)c(Cl)c3)CC2)cc1`, the CLH in data set [14] came out at 15 µL/min/mg. This molecule displayed a t1/2 in data set [15] of 48 min. As to `CC(C)C[C@H](NC(=O)CNC(=O)Nc1ccc(Br)cc1)C(=O)OC(C)(C)C`, the EC50 in data set [16] came to 2300 nM; in data set [17], 600 nM. Turning to `CC[C@H](C)[C@H](NC(=O)[C@H](CC(N)=O)NC(=O)[C@@H](NC(=O)[C@H](CCSC)NC=O)[C@@H](C)O)C(=O)N[C@@H](CCCNC(=N)N)C(=O)N[C@@H](CCCCN)C(=O)N[C@@H](CO)C(=O)N[C@@H](Cc1cnc[nH]1)C(=O)N1CCC[C@H]1C(=O)N[C@@H](CC(C)C)C(=O)N[C@@H](CCSC)C(=O)N[C@@H](CCCCN)C(=O)N[C@H](C(=O)N[C@H](C(=O)N[C@@H](CC(N)=O)C(=O)O)[C@@H](C)CC)[C@@H](C)CC` (For-MTNIRKSHPLMKIIN-OH), the EC50 in data set [18] amounted to 6.9 nM. `O=C(NCc1ccc(Br)cc1F)[C@@H]1C2CCC([C@H]1C(=O)NC1CCNCC1F)C21CC1` (stereo not given in full): in [1], the bioavailability came out at 12%. In [19], this molecule showed an EC50 of 2 nM. Take `COCCN1CC[C@H](NC(=O)Nc2ccc(Cl)cc2)[C@@H](c2c(F)cc(OC)cc2F)C1` (racemic): the EC50 in [5] was under 1 nM; in data set [6] it was 1000 nM. With Ac-AMVSEFLKQAWIENEEQEYVVQTVK-OH, the EC50 in [20] was 1400 nM; in data set [21] it was 1800 nM. Regarding `CCCCC[C@H](O)[C@H](O)/C=C/C=C/C=C\C=C\[C@@H](O)CCCC(=O)O`, the figures for the Kd in data set [22] and in data set [23] were 1.7 nM and 1.5 nM, respectively.

On to `CC[C@H](C)[C@H](NC(=O)Nc1ccc(Br)cc1F)C(=O)O`, for which the EC50 in [24] amounted to 87 nM. The same measure, in the same setting: with `CCC1(C(C)C)NC(=O)N(CC(=O)Nc2ccc(Br)cc2)C1=O` (stereo not given) the figure was 0.5 nM.

Values taken from ChEMBL document CHEMBL5523682, “The formyl peptide receptors FPR1 and FPR2 as targets for inflammatory disorders: recent advances in the development of small-molecule agonists” (Eur J Med Chem, 2024).
